Values of other authors in patent US20240390366A1, “FORMULATION AND METHOD FOR TOPICAL TREATMENT OF MYCOBACTERIUM ULCERANS IN BURULI ULCERS” (priority 2021, published 2024).

Q: With `CC(C)/N=c1\cc2n(-c3ccc(Cl)cc3)c3ccccc3nc-2cc1Nc1ccc(Cl)cc1` [Clofazimine, clofazimine] as the compound, how does the solubility in water read?
A: practically insoluble
